Here are results for 8 molecules from patent publication US20230416703A1, “Methods and Materials for Producing Polyols and Electron Rich Compounds” (THE TRUSTEES OF PRINCETON UNIVERSITY, priority 2019, published 2023).

The term IC50 denotes the concentration that gives 50% inhibition. Read a high IC50 as weaker potency.

Entries after “also recorded” stand apart in the source; their conditions may differ. A value given as a limit tells only on which side of the number the result lay.

The target in one test is T1, Pyp1 (Saccharomyces cerevisiae, UniProt P53981).
T1 construct: made in house; host or cells: E. coli BL21 (DE3) Gold
T1 sequence (P53981 whole entry): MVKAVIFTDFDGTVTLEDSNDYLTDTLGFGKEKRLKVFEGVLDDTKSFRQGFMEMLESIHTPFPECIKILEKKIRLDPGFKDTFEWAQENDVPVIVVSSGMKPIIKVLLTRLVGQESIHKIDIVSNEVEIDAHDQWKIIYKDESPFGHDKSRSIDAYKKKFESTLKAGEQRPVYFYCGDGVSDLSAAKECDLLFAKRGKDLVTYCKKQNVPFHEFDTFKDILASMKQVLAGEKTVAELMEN
Briefly: Phosphatase activity of purified recombinant Pyp1 against phosphorylated substrates. It counts as biochemical, S. cerevisiae. The settings on record: incubation with purified Pyp1, 0.5 mM substrate. As to the method: Purified Pyp1 phosphatase activity was assayed in the presence of 0.5 mM substrate and 5 mM Mg^2+ (pH=7.0, 30° C.) by monitoring the appearance of free phosphate or the polyol. The y axis represents specific phosphatase activity (μmol product made per mg of protein per minute) (mean±range of N=2 replicates).
Purified Pyp1's phosphatase activity was assayed against 0.5 mM ribitol-5P by LC-MS. […] (FIG. 10B). Pyp1's D-polyol phosphatase activity was measured in the presence of 0.5 mM substrate and 5 mM Mg^2+ (pH=7.0, 30° C.) by monitoring the appearance of phosphate or the polyol. The y-axis represents specific phosphatase activity (moles product per min per mg of protein) (mean±range, N=2).
In the initial screening of Pyp1's phosphatase activity, the gene encoding Pyp1 was amplified by PCR using S. cerevisiae genomic DNA. The amplified fragments were cloned into a modified pET15b vector (Novagen, Darmstadt, Germany) and overexpressed in the E. coli BL21(DE3) Gold strain (Stratagene, La Jolla, California) as previously described by Kuznetsova et al., J Biol Chem 2010, 285, 21049. The recombinant proteins were purified using metal ion affinity chromatography on nickel affinity resin (Qiagen, Hilden, Germany) to high homogeneity and stored at −80° C. Purified Pyp1 was screened for the presence of phosphatase activity against the general phosphatase substrate p-nitrophenyl phosphate (pNPP) and 90 phosphorylated metabolites as described previously by Kuznetsova et al., J Biol Chem 2006, 281, 36149. […]
Briefly, the gene encoding Pyp1 was amplified by PCR using S. cerevisiae genomic DNA. The amplified fragments were cloned into a modified pET15b vector (Novagen, Darmstadt, Germany) and overexpressed in the E. coli BL21 (DE3) Gold strain (Stratagene, La Jolla, California) as previously described (Kuznetsova et al., 2010). The recombinant protein was purified using metal ion affinity chromatography on nickel chelate resin (Qiagen, Hilden, Germany) to high homogeneity and stored at −80° C. Purified Pyp1 was then screened for phosphatase activity as described previously (Kuznetsova et al., 2006).

Test [1] has as its target T2, yeast Pgi1 (phosphoglucose isomerase) (Saccharomyces cerevisiae, UniProt P12709).
T2 construct: purchased Sigma Aldrich (St. Louis, MO)
In words: Inhibition of purified Pgi1 (phosphoglucose isomerase) activity, LC/MS detection of glucose-6-phosphate. Particulars: for Inhibition of Pgi1 (in words): 0.6 mM fructose-6-phosphate, 0.05-5 mM polyol phosphate. It is filed as biochemical. As to the method: Purified Pgi1's activity was assayed in the presence of 0.6 mM fructose-6-phosphate, 5 mM Mg^2+ (pH=7.0, 30° C.) and a range of 0.05-5 mM of sorbitol-6P or ribitol-5P by monitoring the appearance of glucose-6-phosphate. The y axis represents relative Pgi1 activity (mean±range of N=2 replicates).
FIGS. 13A-13C show polyol phosphates inhibit phosphoglucose isomerase in vitro and in growing yeast. (FIG. 13A). Activity of the purified Pgi1 was assayed in the presence of 0.6 mM fructose-6-phosphate (substrate), 5 mM Mg2+ (pH=7.0, 30° C.) and a range of 0.05-5 mM of sorbitol-6P or ribitol-5P by monitoring the appearance of glucose-6-phosphate. The x-axis represents polyol phosphate concentration and the y-axis represents relative Pgi1 activity (mean±range of N=2 replicates). (FIG. 13B). […] This experiment is used to define a characteristic low-Pgi metabolome. (FIG. 13C). Metabolome profiling of pyp1Δ (dark red) and wild type (blue) cells at t=1 h after switching from trehalose+ribitol to glucose+ribitol.
For the determination of IC50 of sorbitol-6-phosphate and ribitol-5-phosphate on phosphoglucose isomerase, yeast Pgi1 was purchased from Sigma Aldrich (St. Louis, MO). Phosphoglucose isomerase activity was determined by adding fructose-6-phosphate and monitoring the appearance of glucose-6-phosphate using LC/MS. It was determined that the LC/MS-based assay is consistently more sensitive and accurate than the colometric-based assay, which involves coupling the Pgi1 activity with glucose-6-phosphate dehydrogenase activity and monitoring the appearance of NADH. The reaction mixture contained 100 mM Tris-HCl at a pH of 8.0, 10 mM MgCl2, 0.6 mM fructose-6-phosphate (concentration in cells grown exponentially on glucose), and a range of sorbitol-6-phosphate and ribitol-5-phosphate concentrations (0.05 to 5 mM). The resulting data were again fitted to the Hill equation using the GraphPad Prism Software.
To measure the inhibition of Pgi by sorbitol-6-phosphate and ribitol-5-phosphate, yeast Pgi1 was purchased from Sigma Aldrich (St. Louis, MO). Phosphoglucose isomerase activity was determined by adding fructose-6-phosphate and monitoring the appearance of glucose-6-phosphate using LC/MS. We found such LC/MS based assay is consistently more sensitive and accurate than the more typical colorimetric-based assay, which involves coupling the Pgi1 activity with glucose-6-phosphate dehydrogenase activity and monitoring the appearance of NADH. The reaction mixture contained 100 mM Tris-HCl at pH 8.0, 10 mM MgCl2, 0.6 mM fructose-6-phosphate (the physiological concentration in cells grown exponentially on glucose), and a range of sorbitol-6-phosphate and ribitol-5-phosphate concentrations (0.05 to 5 mM). The resulting data were fitted to the Hill equation using the GraphPad Prism Software.

In a further test the test system is pyp1Δ cells. In words: Growth rate of pyp1Δ yeast in the presence of ribitol. It is filed as cell-based, Saccharomyces cerevisiae. The text has this: (§1) Wild type yeast and pyp1Δ cells growing on 1% trehalose in the absence or presence of 1% ribitol (upper panel) were switched to media with trehalose substituted by 1% glucose (lower panel). The y axis represents ratio of growth rates (mean±range of N=2 replicates) of cells growing in the presence of ribitol vs. cells growing in the absence of ribitol. […] The x axis represents hours after the switch and the y axis represents absolute intracellular concentration (mean±range of N=2 replicates). […] The x axis represents different growth rates and the y axis represents relative expression level of PYP1. […] The y axis represents absolute intracellular concentration, except for the panel displaying the NADPH/NADP^+ ratio (mean±range of N=2 replicates).
(§2) (FIG. 12A). Growth of wild type and pyp1Δ yeast on sorbitol. Yeast cells grown on YPD medium were switched to minimal media containing 2% sorbitol as the carbon source. The x-axis represents days after the switch and the y-axis represents optical density (A600). (FIG. 12B). Absolute concentration of sorbitol-6-phosphate in wild type and pyp1Δ cells in the experiment shown in (A). The x-axis represents days after the switch and the y-axis represents absolute intracellular concentration (mean±range, N=2). (FIG. 12C). Growth of wild type and pyp1Δ cells on glycerol and mannitol. […]

The next test deals with wild type yeast cells. Briefly: Growth rate of wild type yeast in the presence of ribitol. It is filed as cell-based, Saccharomyces cerevisiae. Particulars: 1% trehalose +/- 1% ribitol.
Source text: as §1, §2

T2 sequence (P12709 2-554 limits assumed): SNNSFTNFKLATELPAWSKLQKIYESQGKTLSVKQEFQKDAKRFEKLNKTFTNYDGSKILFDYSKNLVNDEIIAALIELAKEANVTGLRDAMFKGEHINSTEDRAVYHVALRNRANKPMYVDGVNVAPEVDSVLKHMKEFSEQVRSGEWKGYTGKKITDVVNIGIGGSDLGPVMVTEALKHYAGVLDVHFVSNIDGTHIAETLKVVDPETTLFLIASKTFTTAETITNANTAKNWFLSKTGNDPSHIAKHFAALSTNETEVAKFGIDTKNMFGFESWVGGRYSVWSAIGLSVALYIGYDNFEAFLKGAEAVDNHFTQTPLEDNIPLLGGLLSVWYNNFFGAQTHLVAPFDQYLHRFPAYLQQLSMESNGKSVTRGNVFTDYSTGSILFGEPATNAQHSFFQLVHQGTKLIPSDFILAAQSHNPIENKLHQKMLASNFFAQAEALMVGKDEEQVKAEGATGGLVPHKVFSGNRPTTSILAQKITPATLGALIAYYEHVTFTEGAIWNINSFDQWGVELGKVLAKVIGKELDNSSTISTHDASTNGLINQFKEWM

Turning to `O=P(O)(O)OCC(O)CO` (racemic) [racemic glycerol-3P], the “Pyp1 phosphatase activity on substrate (in words)” value (from here on “Pyp1 phosphatase activity”) at Pyp1 is “hydrolysis”.

Turning to `O=C(CO)[C@@H](O)[C@H](O)[C@H](O)[C@H](O)[C@H](O)COP(=O)(O)O` [O8P, D-Glycero-D-Altro-Octulose-8-phosphate], the “Pyp1 phosphatase activity” value on Pyp1 is on record as “No detectable phosphatase activity”; at Pyp1 (listed as octulose-8P), “no detectable phosphatase activity”.

With `O=C[C@H](O)[C@H](O)COP(=O)(O)O` [erythrose-4P], at Pyp1, the “Pyp1 phosphatase activity” value is reported as “hydrolysis”.

Turning to `O=P(O)(O)OCC(O)CO` [glycerol-1P, D-glycerol-3-phosphate], the “Pyp1 phosphatase activity” value is given as “depletion” on Pyp1 and “in vitro substrate” on Pyp1 (listed as Glycerol-1-phosphate).

On to `O=P(O)(O)OC[C@H](O)CO` [glycerol-3P, L-glycerol-3-phosphate], for which the “Pyp1 phosphatase activity” value on Pyp1 (listed as (L)-glycerol-3P) was “very low activity”.

In the case of `O=P(O)(O)OC[C@@H](O)[C@@H](O)[C@@H](O)CO` [ribitol-5P, ribitol-5-phosphate], the “Inhibition of Pgi1 (in words)” value in test [1] is given as “did not inhibit Pgi1 as strongly as sorbitol-6P; also recorded: less potently”. Moreover, the “Lower growth rate in pyp1Δ cells after carbon upshift” value in the test on pyp1Δ cells (switched from trehalose + ribitol to glucose plus ribitol) is recorded as around 50%. Also, the “Pyp1 phosphatase activity” value at Pyp1 was “depletion”.

Regarding `OC[C@@H](O)[C@@H](O)[C@@H](O)CO` [ribitol], the “Decrease of the growth rate of pyp1Δ cells” value in the test on pyp1Δ cells (1% trehalose +/- 1% ribitol) is given as around 20%. Further, the “Effect on growth rate of wild type cells growing on trehalose” value in the test with wild type yeast cells is “does not affect the growth rate; also recorded: without impacting growth rate”.

In the case of `O=P(O)(O)OC[C@@H](O)[C@@H](O)[C@H](O)[C@@H](O)CO` [sorbitol-6P, sorbitol-6-phosphate], the “Inhibition of Pgi1 (in words)” value in test [1] is on record as “inhibit”. The inhibition at 1000 µM in test [1] (1 mM sorbitol-6P added, read-out: Pgi1 activity inhibited) was above 85%. This molecule also came in with an IC50 in test [1] (purified Pgi1, 0.6 mM fructose-6-phosphate, inhibitor range 0.05-5 mM) of around 50 µM. Also, on Pyp1, the “Pyp1 phosphatase activity” value is “depletion; also recorded: hydrolysis”.
